The supplement of paper PMC10307832

Assays:
Experiment in all cases: relative viability (nuclei count vs DMSO), 5 days (fraction); higher = more cells survive
GSK126 + Tozasertib = compound: CC[C@H](C)N1C=C(C2=C(C=C(C=C21)C3=CN=C(C=C3)N4CCNCC4)C(=O)NCC5=C(C=C(NC5=O)C)C)C [GSK126] + Cc1cc(Nc2cc(N3CCN(C)CC3)nc(Sc3ccc(NC(=O)C4CC4)cc3)n2)n[nH]1 [Tozasertib] (partner 0.1 µM)
In short: (§1)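 After 5 days of treatment, lung cancer cells in 1536-well plates were fixed and stained in a single step (final 0.05% Triton X-100, 1% formaldehyde, 1 ug/ml Hoechst) and their nuclei counted on 4× images. Treatment had been applied by pin tool the day after seeding as one drug alone or as a fixed anchor-drug dose with five library-drug doses (not always all listed) in √10 steps. Relative viability is the nuclei count of treated wells divided by that of vehicle wells, and values are medians of duplicate plates.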

Carboplatin + Foretinib = compound: C1CC(C1)(C(=O)O)C(=O)O.[NH2-].[NH2-].[Pt+2] [Carboplatin] + COc1cc2c(Oc3ccc(NC(=O)C4(C(=O)Nc5ccc(F)cc5)CC4)cc3F)ccnc2cc1OCCCN1CCOCC1 [Foretinib] (partner 0.25 µM)
In short: as §1

Carboplatin + Lapatinib = compound: C1CC(C1)(C(=O)O)C(=O)O.[NH2-].[NH2-].[Pt+2] [Carboplatin] + CS(=O)(=O)CCNCc1ccc(-c2ccc3ncnc(Nc4ccc(OCc5cccc(F)c5)c(Cl)c4)c3c2)o1 [Lapatinib] (partner 2 µM)
In short: as §1

GSK126 + Decitabine = compound: CC[C@H](C)N1C=C(C2=C(C=C(C=C21)C3=CN=C(C=C3)N4CCNCC4)C(=O)NCC5=C(C=C(NC5=O)C)C)C [GSK126] + Nc1ncn([C@H]2C[C@H](O)[C@@H](CO)O2)c(=O)n1 [Decitabine] (partner 2 µM)
In short: as §1

Cell Line | relative viability (GSK126 + Tozasertib; first compound 0.08 µM) | relative viability (GSK126 + Tozasertib; first compound 0.253 µM) | relative viability (GSK126 + Tozasertib; first compound 0.8 µM) | relative viability (GSK126 + Tozasertib; first compound 2.53 µM) | relative viability (GSK126 + Tozasertib; first compound 8 µM) | relative viability (Carboplatin + Foretinib; first compound 0.08 µM) | relative viability (Carboplatin + Foretinib; first compound 0.253 µM) | relative viability (Carboplatin + Foretinib; first compound 0.8 µM) | relative viability (Carboplatin + Foretinib; first compound 2.53 µM) | relative viability (Carboplatin + Foretinib; first compound 8 µM) | relative viability (Carboplatin + Lapatinib; first compound 0.08 µM) | relative viability (Carboplatin + Lapatinib; first compound 0.253 µM) | relative viability (Carboplatin + Lapatinib; first compound 0.8 µM) | relative viability (Carboplatin + Lapatinib; first compound 2.53 µM) | relative viability (Carboplatin + Lapatinib; first compound 8 µM) | relative viability (GSK126 + Decitabine; first compound 0.08 µM) | relative viability (GSK126 + Decitabine; first compound 0.253 µM) | relative viability (GSK126 + Decitabine; first compound 0.8 µM) | relative viability (GSK126 + Decitabine; first compound 2.53 µM) | relative viability (GSK126 + Decitabine; first compound 8 µM)
HCC-78 | 0.527 | 0.54 | 0.401 | 0.386 | 0.405 | 0.616 | 0.555 | 0.54 | 0.526 | 0.545 | 0.867 | 0.833 | 0.971 | 0.875 | 0.631 | 0.756 | 0.659 | 0.683 | 0.839 | 0.74
HCC-366 | 0.193 | 0.117 | 0.123 | 0.0783 | 0.0929 | 0.91 | 0.877 | 0.957 | 0.918 | 0.759 | 1.08 | 1.01 | 0.988 | 0.963 | 0.863 | 0.34 | 0.34 | 0.336 | 0.463 | 0.338
HCC-827 | 0.428 | 0.433 | 0.453 | 0.387 | 0.408 | 1.05 | 1.03 | 1.01 | 0.995 | 0.912 | 0.236 | 0.175 | 0.18 | 0.187 | 0.224 | 0.396 | 0.368 | 0.313 | 0.325 | 0.323
HOP-62 | 0.314 | 0.397 | 0.427 | 0.261 | 0.308 | 0.984 | 1 | 1.07 | 1.04 | 0.994 | 0.98 | 1.07 | 1.09 | 1.02 | 0.812 | 0.216 | 0.203 | 0.21 | 0.197 | 0.248
IA-LM | – | – | – | – | – | 1.25 | 1.06 | 1.21 | 1.19 | 1 | 0.809 | 0.802 | 0.739 | 0.929 | 0.77 | – | – | – | – | –
LC-2-ad | 0.43 | 0.472 | 0.428 | 0.458 | 0.419 | 1.03 | 1.04 | 0.994 | 0.874 | 0.679 | 0.967 | 0.981 | 0.938 | 0.991 | 0.844 | 0.779 | 0.866 | 0.717 | 0.876 | 0.78
LCLC-97TM1 | 0.244 | 0.223 | 0.188 | 0.225 | 0.176 | 1 | 0.956 | 0.892 | 0.868 | 0.765 | 0.891 | – | 1.02 | 1.08 | 1 | 0.237 | 0.257 | 0.218 | 0.24 | 0.253
LCLC-103H | 0.699 | 0.473 | 0.435 | 0.512 | 0.446 | 0.752 | 0.83 | 0.806 | 0.703 | 0.632 | – | – | – | – | – | 0.795 | 0.855 | 0.797 | 0.737 | 0.759
LK-2 | 0.209 | 0.212 | 0.175 | 0.183 | 0.189 | 1.46 | 1.24 | 1.17 | 1.01 | 1.26 | 1.17 | 0.956 | 0.858 | 0.792 | 0.809 | 0.42 | 0.239 | 0.333 | 0.273 | 0.31
LOU-NH91 | 0.741 | 0.66 | 0.661 | 0.685 | 0.631 | 0.991 | 0.998 | 0.955 | 0.921 | 0.922 | 0.84 | 0.755 | 0.838 | 0.819 | 0.735 | 0.831 | 0.813 | 0.838 | 0.793 | 0.823
NCI-H441 | 0.68 | 0.571 | 0.567 | 0.545 | 0.461 | 0.929 | 0.971 | 0.744 | 1.01 | 0.915 | – | – | – | – | – | 0.248 | 0.236 | 0.143 | 0.214 | 0.234
NCI-H522 | 0.535 | 0.507 | 0.503 | 0.527 | 0.605 | – | – | – | – | – | – | – | – | – | – | 0.717 | 0.587 | 0.716 | 0.581 | 0.683
NCI-H1299 | – | – | – | – | – | 1.13 | 1.09 | 1.04 | 1.05 | 0.996 | 0.993 | 0.922 | 0.944 | 0.907 | 0.892 | – | – | – | – | –
NCI-H1563 | – | – | – | – | – | 0.931 | 0.954 | 0.92 | 0.929 | 0.888 | 0.998 | 1.07 | 1.11 | 0.925 | 0.979 | – | – | – | – | –
NCI-H1623 | 0.453 | 0.487 | 0.419 | 0.416 | 0.353 | 0.959 | 0.919 | 0.884 | 0.747 | 0.725 | – | – | – | – | – | – | – | – | – | –
NCI-H1648 | 0.386 | – | 0.478 | 0.518 | 0.321 | – | – | – | – | – | – | – | – | – | – | 0.561 | 0.562 | 0.554 | 0.633 | 0.492
NCI-H1703 | – | – | – | – | – | 0.446 | 0.397 | 0.34 | 0.403 | 0.37 | 1.13 | 0.966 | 1.13 | 0.92 | 1.28 | – | – | – | – | –
NCI-H1792 | – | – | – | – | – | – | – | – | – | – | 1 | 1.02 | 0.941 | 0.817 | 0.8 | 0.716 | 0.546 | 0.498 | 0.412 | 0.575
NCI-H2228 | 0.254 | 0.225 | 0.273 | 0.172 | 0.15 | 0.907 | 0.831 | 0.626 | 0.845 | 0.532 | 1.61 | 0.939 | 1.01 | 0.868 | 0.616 | – | – | – | – | –
NCI-H2342 | 0.538 | 0.471 | 0.613 | 0.507 | 0.597 | 0.949 | 0.961 | 0.993 | 0.865 | 0.785 | – | – | – | – | – | 0.75 | 0.7 | 0.7 | 0.628 | 0.812
SW 900 | 0.577 | 0.534 | 0.635 | 0.632 | 0.51 | 1.08 | 0.789 | 0.677 | 0.769 | 0.682 | – | – | – | – | – | 0.444 | 0.356 | 0.459 | 0.487 | 0.462
